Earlier results on 3 molecules are cited in patent US6113907A, “Pharmaceutical grade St. John's Wort” (priority 1997, dated 2000).

The conditions of data set [1]: depressed outpatients; cited from earlier work.
For data set [2] the following is noted: oil preparations, exposed to light; cited from earlier work.
Another data set relates to bacteria, fungi. Conditions: hyperforin, adhyperforin: dilutions of 1:400 or 1:200; cited from earlier work.
The target in the next data set is monoamine oxidase B. The settings on record: reference compounds; read-out: inhibition of monoamine oxidase B IC50; cited from earlier work.

Where a name gives a salt, the structure may show the parent alone.

On to `CCCC/N=C(/c1cc(Cl)ccc1O)c1ccccc1Cl` [fengabine], for which the antidepressant effects entry in data set [1] is reported as “antidepressant effects”.
`CC(C)=CCCC1(C)C(CC=C(C)C)CC2(CC=C(C)C)C(=O)C(CC=C(C)C)=C(O)C1(C(=O)C(C)C)C2=O` (stereo not shown) [Hyperforin, hyperforin]: the degradation time in data set [2] is 14 days. Also, the “antibacterial / antifungal / antibiotic effect” value in the data set with bacteria, fungi is “antibiotic effect greater than that of sulfonilamide”.
With `NCCNC(=O)c1cccc(I)c1` [N-(2-aminoethyl)-3-iodobenzamide hydrochloride], the IC50 (commonly the point on the concentration scale where inhibition reaches its midpoint) on monoamine oxidase B was 1700 nM.
